Laboratory results reported in article PMC11238919 (Virulence, 2024).
Where “and” joins values, the source holds several entries; their conditions need not be identical. Identical values can stand only once. Where no end group is shown, it is not given here. [ ]: non-standard residue; d: D form. pY = N[C@@H](Cc1ccc(OP(=O)(O)O)cc1)C(=O)O

Tests used:
SHIP2 = settings: ref [15]; cited from earlier work
SHIP2-SH2 domain = target: T1, SHIP2-SH2 domain (Homo sapiens, UniProt O15357); test: SPR affinity of EPIpYA peptides to immobilized SHIP2-SH2 domain; type: binding; settings: EPIpYA-D versus EPIpYA-C
T1 sequence (O15357 21-117 limits assumed): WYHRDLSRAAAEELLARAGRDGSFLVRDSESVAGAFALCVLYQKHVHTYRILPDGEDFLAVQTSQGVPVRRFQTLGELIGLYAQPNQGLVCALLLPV

SHP2 = settings: ref [10]; cited from earlier work
[1] = system: hummingbird phenotype of infected cells; test: Hummingbird phenotype of infected cells; type: cell-based; settings: SHP099 10 µM added 48 h before infection
[2] = target: T2, His-tagged SHIP2-SH2 domain (UniProt O15357 21-117); test: SPR
T2 sequence (looked up): T1 sequence (O15357 21-117 limits assumed)

In the case of “EPIYA-C: EPIYA-C motif of CagA^W (literature)”, the “binding to SHIP2, EPIYA-C versus EPIYA-D” value (SHIP2) is listed as “binds slightly strongly to EPIYA-C than EPIYA-D”.

With `CC[C@H](C)[C@H](NC(=O)[C@@H](NC(=O)[C@H](C)NC(=O)[C@H](Cc1ccc(OP(=O)(O)O)cc1)NC(=O)[C@@H](NC(=O)[C@@H]1CCCN1C(=O)[C@H](CCC(=O)O)NC(=O)[C@@H]1CCCN1C(=O)[C@H](CO)NC(=O)[C@H](C)N)[C@@H](C)CC)[C@@H](C)O)C(=O)N[C@@H](CC(=O)O)C(=O)N[C@@H](Cc1ccccc1)C(=O)N[C@@H](CC(=O)O)C(=O)O` [EPIpYA-D] the “KD approximately 10 times lower than that of EPIpYA-C” value (SHIP2-SH2 domain) was “approximately 10 times”.

In the case of “EPIYA-D: CagA^E-specific EPIYA-D segment (literature)”, the “binding to SHP2, EPIYA-D versus EPIYA-C” value (SHP2) is listed as “binds to SHP2 more strongly than the EPIYA-C segment”.

In the case of `CC1(N)CCN(c2cnc(-c3cccc(Cl)c3Cl)c(N)n2)CC1` [SHP099], the “differences in morphological changes between strain groups” value [1] is reported as “the differences in the morphological changes between the groups were not obvious”.

For ASPEPI[pY]ATIDFD [tyrosine-phosphorylated EPIYA-D peptide (ASPEPIpYATIDFD)], the Kd [2] was 890 nM and 896 nM.

In the case of VSPEPI[pY]ATIDDL [tyrosine-phosphorylated EPIYA-C peptide (VSPEPIpYATIDDL)], the Kd [2] is reported as 8350 nM.
